US7259004B1, “Endophytic streptomycetes from higher plants with biological activity” (Montana State University, priority 2002, dated 2007)

How the values were obtained:
[1] = system: Pseudomonas aeruginosa ATCC 27853; assay: disk diffusion assay; format: cell-based; conditions: 10 micrograms per disk; ciprofloxacin 5, vancomycin 30 micrograms per disk; 35° C. Also: key: R = resistant.
[2] = system: Vibrio fischeri PIC 345; assay: disk diffusion assay; format: cell-based; conditions: 10 micrograms per disk; ciprofloxacin 5, vancomycin 30 micrograms per disk; 35° C.
[3] = system: Enterococcus faecalis ATCC 29212; assay: disk diffusion assay; format: cell-based; conditions: 10 micrograms per disk; ciprofloxacin 5, vancomycin 30 micrograms per disk; 35° C.
[4] = system: Enterococcus faecalis ATCC 51299; assay: disk diffusion assay; format: cell-based; conditions: 10 micrograms per disk; ciprofloxacin 5, vancomycin 30 micrograms per disk; 35° C.
[5] = system: Staphylococcus aureus ATCC 29213; assay: disk diffusion assay; format: cell-based; conditions: 10 micrograms per disk; ciprofloxacin 5, vancomycin 30 micrograms per disk; 35° C.
[6] = system: Acinetobacter sp. ATCC 49137; assay: disk diffusion assay; format: cell-based; conditions: 10 micrograms per disk; ciprofloxacin 5, vancomycin 30 micrograms per disk; grown at 30° C.
[7] = system: Neisseria gonnorhea ATCC 49226; assay: disk diffusion assay; format: cell-based; conditions: 10 micrograms per disk; ciprofloxacin 5, vancomycin 30 micrograms per disk; GC agar with 1% growth supplement with 5% CO2
[8] = system: Streptococcus pneumoniae ATCC 49619; assay: disk diffusion assay; format: cell-based; conditions: 10 micrograms per disk; ciprofloxacin 5, vancomycin 30 micrograms per disk; MHA with 5% dsb. and 5% CO2
[9] = system: Bacillus anthracis K8902; format: cell-based; conditions: 10 micrograms per disk; ciprofloxacin 5, vancomycin 30 micrograms per disk; 35° C.
[10] = system: Escherichia coli ATCC 25922; assay: disk diffusion assay; format: cell-based; conditions: 10 micrograms per disk; penicillin G 10 units per disk; 35° C. Also: key: R = resistant.
[11] = system: S. epidermis ATCC 12228; assay: disk diffusion assay; format: cell-based, Staphylococcus epidermidis; conditions: 10 micrograms per disk; 35° C.
[12] = system: S. maltophilia ATCC 13637; assay: disk diffusion assay; format: cell-based, Stenotrophomas maltophilia; conditions: 10 micrograms per disk; 35° C.
[13] = system: Shigella dysenteriae ATCC 11835; assay: disk diffusion assay; format: cell-based; conditions: 10 micrograms per disk; 35° C.
[14] = system: Candida albicans ATCC 24433; assay: disk diffusion assay; format: cell-based; conditions: 10 micrograms per disk; 35° C. Also: key: R = resistant.
[15] = system: Candida albicans ATCC 90028; assay: disk diffusion assay; format: cell-based; conditions: 10 micrograms per disk; 35° C. Also: key: R = resistant.
[16] = system: Candida parasilosis ATCC 22019; assay: disk diffusion assay; format: cell-based, Candida parapsilosis; conditions: 10 micrograms per disk; 35° C. Also: key: R = resistant.
[17] = system: Candida tropicalis ATCC 750; assay: disk diffusion assay; format: cell-based; conditions: 10 micrograms per disk; 35° C. Also: key: R = resistant.
[18] = system: Candida krusei ATCC 6258; assay: disk diffusion assay; format: cell-based; conditions: 10 micrograms per disk; 35° C.
[19] = system: Candida glabrata ATCC 2001; assay: disk diffusion assay; format: cell-based; conditions: 10 micrograms per disk; 35° C. Also: key: R = resistant.
[20] = system: Candida parasdosis ATCC 90018; assay: disk diffusion assay; format: cell-based, Candida parapsilosis; conditions: 10 micrograms per disk; 35° C. Also: key: R = resistant.
[21] = system: Pseudomonas syringae; assay: microbroth dilution MIC, plant associated microorganisms; format: cell-based; conditions: PD broth
Procedure: (§1) Incubation was for 48 hours at 23° C. A plant pathogenic strain of Pseudomonas syringae was also tested using the same PD broth medium and with concentrations of colony forming units as given above. The organisms were obtained from the Montana State University plant pathogen culture collection administered by Dr. […] The relative activities against plant pathogenic fungi ranged from a few tenths of a microgram up to thirty micrograms. Table 2 provides the results of tests of inhibitory activity of the munumbicins against various plant-pathogenic fungi and one pathogenic bacterium. The data are reported as MIC values in micrograms/ml.

[22] = system: Pythium ultimum; assay: as above; format: cell-based; conditions: PD broth, 48 hours at 23° C.
Procedure: as §1

[23] = system: Sclerotinia sclerotiorum; assay: as above; format: cell-based; conditions: PD broth, 48 hours at 23° C.
Procedure: as §1

[24] = system: Staphylococcus aureus ATCC 33591 (MRSA); assay: microbroth dilution MIC; format: cell-based; conditions: methicillin resistant strain; first listing in Table 4
[25] = system: Enterococcus faecalis ATCC 51299 (VRE); assay: microbroth dilution MIC; format: cell-based; conditions: resistant to vancomycin; first listing in Table 4
[26] = system: Human Breast Cancer Epithelial BT-20; assay: CellTiter 96 Aqueous Non-Radioactive Cell Proliferation Assay; format: cell-based; conditions: 96-144 hours; Table 7
Procedure: (§2) The munumbicins were then tested against three human cancer cell lines (ATCC) and human primary mammary epithelial cells (HMECs) (Clonetics; Biowhittaker, Walkersville, Md.) using a CellTiter 96® Aqueous Non-Radioactive Cell Proliferation Assay kit from Promega (Madison, Wis.). The cell lines were A-549 (lung epithelial carcinoma, ATCC CCL-185), ME-180 (cervical epithelial epidermoid carcinoma, ATCC HTB-33), and BT-20 (breast epithelial cancer, ATCC HTB-19), and were grown in the media recommended by ATCC. The primary mammary cells were cultured as recommended by the manufacturer in mammary epithelial cell growth media (MEGM®). […] After seeding, the cells were incubated for five hours at 37° C. before addition of the munumbicins. Two-fold serial dilutions of the munumbicins were made in the culture medium, and a volume equal to that of the seeded cells for each dilution was added to three wells of cells. Each plate also contained some wells with cells plus medium only and some wells with medium only. […] The A-549 and ME-180 cells were incubated for 48 hours. […] The plates were incubated at 37° C. for one to four hours, and the OD490 was determined. The OD reading of all wells was corrected for background by subtracting the reading of wells containing medium only. […] Kakadumycin A was tested against three human cancer cell lines (ATCC) and human primary mammary epithelial cells using the procedure described above for the munumbicins. Kadadumycin B was tested against one human cancer cell line.

[27] = system: Human Cervical Cancer Epithelial ME180; assay: as above; format: cell-based; conditions: 48 hours; Table 7
Procedure: as §2

[28] = system: Human Lung Cancer Epithelial A549; assay: as above; format: cell-based; conditions: 48 hours; Table 7
Procedure: as §2

[29] = system: Human Primary Mammary Epithelial HMEC; assay: as above; format: cell-based; conditions: 48 hours; Table 7
Procedure: as §2

[30] = system: gram positive bacteria including Staphylococcus species, Streptococcus pneumoniae, Enterococcus species, Bacillus subtilis, and Listeria monocytogenes; assay: activity against Gram positive bacteria (general statements); format: cell-based
[31] = system: brine shrimp; assay: brine shrimp assays; conditions: preliminary assays
[32] = system: Cryptococcus neoformans; assay: microbroth dilution MIC
[33] = system: Aspergillus fumigatus; assay: microbroth dilution MIC
[34] = system: Plasmodium falciparum strain CSC-1 (Honduras); assay: antimalarial assay, 3H-phenylalanine radiobioassay in human red blood cells; conditions: human red blood cells, 3H-phenylalanine; standard deviation of the mean, three experiments

Substance: munumbicin A
- diameter of the zone of inhibition, Pseudomonas aeruginosa ATCC 27853 [1]: R
- diameter of the zone of inhibition, Vibrio fischeri PIC 345 [2]: R
- diameter of the zone of inhibition, Enterococcus faecalis ATCC 29212 [3]: R
- diameter of the zone of inhibition, Enterococcus faecalis ATCC 51299 [4]: R
- diameter of the zone of inhibition, Staphylococcus aureus ATCC 29213 [5]: R
- diameter of the zone of inhibition, Acinetobacter sp. ATCC 49137 [6]: R
- diameter of the zone of inhibition, Neisseria gonnorhea ATCC 49226 [7]: 9 mm
- diameter of the zone of inhibition, Streptococcus pneumoniae ATCC 49619 [8]: R
- diameter of the zone of inhibition, Bacillus anthracis K8902 [9]: 9.5 mm
- diameter of the zone of inhibition, Escherichia coli ATCC 25922 [10]: R
- diameter of the zone of inhibition, S. epidermis ATCC 12228 [11]: 9 mm
- diameter of the zone of inhibition, S. maltophilia ATCC 13637 [12]: R
- diameter of the zone of inhibition, Shigella dysenteriae ATCC 11835 [13]: R
- diameter of the zone of inhibition, Candida albicans ATCC 24433 [14]: R
- diameter of the zone of inhibition, Candida albicans ATCC 90028 [15]: R
- diameter of the zone of inhibition, Candida parasilosis ATCC 22019 [16]: R
- diameter of the zone of inhibition, Candida tropicalis ATCC 750 [17]: R
- diameter of the zone of inhibition, Candida krusei ATCC 6258 [18]: R
- diameter of the zone of inhibition, Candida glabrata ATCC 2001 [19]: R
- diameter of the zone of inhibition, Candida parasdosis ATCC 90018 [20]: R
- MIC Pseudomonas syringae [21]: 15.6 micrograms/ml
- MIC Pythium ultimum [22]: 2.0 micrograms/ml
- MIC Sclerotinia sclerotiorum [23]: 8.0 micrograms/ml
- MIC Staphylococcus aureus ATCC 33591 [24]: not active
- MIC Enterococcus faecalis ATCC 51299 [25]: 8 micrograms/ml
- IC50 Human Breast Cancer Epithelial BT-20 [26]: 0.19 micrograms/ml
- IC50 Human Cervical Cancer Epithelial ME180 [27]: 0.51 micrograms/ml
- IC50 Human Lung Cancer Epithelial A549 [28]: 1 micrograms/ml
- IC50 Human Primary Mammary Epithelial HMEC [29]: 0.331 micrograms/ml
- activity against Gram positive bacteria incl. drug resistant strains (in words) [30]: shows activity
- LC50 brine shrimp [31]: 3.3 micrograms/ml
- MIC Cryptococcus neoformans [32]: 10 micrograms/ml
- MIC Aspergillus fumigatus [33]: 20 micrograms/ml
- IC50 Plasmodium falciparum [34]: 0.175 ± 0.106 µg/mL
